{"source": "patent US12201633B2", "about": "“Compounds and methods for treatment of visceral pain” (Arena Pharmaceuticals, Inc., priority 2017, dated 2025)", "key": {"[1]": {"system": "rats following ligation of spinal nerves", "conditions": "local (subcutaneous) or systemic administration; cited from earlier work"}, "[2]": {"system": "rodents, models of inflammatory pain", "conditions": "systemic delivery; cited from earlier work"}, "[3]": {"system": "capsaicin-induced hyperalgesia and allodynia", "conditions": "topical administration, humans; cited from earlier work"}, "[4]": {"system": "male Sprague Dawley rats, paclitaxel-induced allodynia", "assay": "Paclitaxel-induced allodynia", "format": "in vivo, rat", "conditions": "10 mg/kg orally, FIG. 3", "description": "Animals: Male Sprague Dawley rats [200-250 g] (Harlan Laboratories Inc., Livermore, CA) were housed three per cage and maintained in a humidity-controlled (40-60%) and temperature-controlled (68-72° F.) facility on a 12 h:12 h light/dark cycle (lights on at 6:30 am) with free access to food (Harlan Teklad, Orange, CA, Rodent Diet 8604) and water. Rats were allowed one week of habituation to the animal facility before starting treatment.\nInduction of Allodynia: Rats were treated intraperitoneally, with 2 mg/kg of paclitaxel (Sigma Aldrich, Saint Louis, MO) in 10% Cremophor vehicle (500 μL) on days 0, 2, 4, and 6.\nClinical scoring: Tactile allodynia was tested using von Frey filaments. Briefly, the von Frey assay was performed using the standardized up down method with von Frey filaments, that determine the tactile sensitivity of the paw. By applying the increasingly or decreasingly thicker filaments to the paw in a logarithmic scale of actual force, a linear scale of perceived intensity is determined.\nDrug treatment: Eight days after the start of paclitaxel dosing, a baseline measurement (von Frey assay) was performed prior to dosing of compounds. […] As a positive control, rats were dosed intraperitoneally with 100 mg/kg gabapentin in water. The dosing volume for oral and peritoneal treatment was 500 μL. […]"}, "[5]": {"system": "male Sprague Dawley rats, FCA-induced hyperalgesia", "assay": "FCA-induced hyperalgesia model of inflammatory pain", "format": "in vivo, rat", "conditions": "0.1, 1, 3, 10 and 30 mg/kg orally, 1-hour post dosing, vehicle PEG400; FIG. 1", "description": "Animal info: Male Sprague Dawley rats from Harlan (200-225 g when received) were used. Upon arrival, rats were housed 4 per cage in shoe-box polycarbonate cages with wire tops, wood chip bedding and suspended food and water bottles. Animals were acclimated for 5-7 days prior to being injected with Freund's complete adjuvant (FCA) (Sigma; catalog #5881).\nExperimental procedure: 2 days (48 h) before testing compounds, baseline readings of all rats were taken right before FCA injection. Rats were then injected with 50 μL FCA containing 1 mg/mL Mtb (Mycobacterium tuberculosis) in right hind footpad under inhalation anesthesia (isoflurane). 48 hours after FCA injection, readings were taken as pre-dosing baseline and then rats were dosed orally with 0.5 mL of vehicle or compound (0.5 mL per 250 g rat). Readings were taken again at 1-hour post dosing. All readings were taken with an Analgesy-Meter (Ugo Basile) which measures mechanical hyperalgesia via paw pressure.\nClinical scoring: FCA-induced hyperalgesia was tested with an Analgesy-Meter. Briefly, the Analgesy Meter applied an increasing pressure to the right hind paw. The paw withdrawal threshold was the pressure leading to withdrawal.\nMeanwhile a group of rats were dosed orally with 50 mg/kg of Diclofenac as a positive control. Readings were taken again at 1-hour post dosing. Dosing volume was 500 μL per 250 g rat."}, "[6]": {"system": "male Sprague Dawley rats, MIA model of osteoarthritis", "assay": "Monosodium iodoacetate (MIA) model of osteoarthritis pain", "format": "in vivo, rat", "conditions": "3, 10 and 30 mg/kg orally, one hour after dosing, vehicle PEG400; FIG. 2", "text": "Injection of monosodium iodoacetate (MIA) into a joint (Kalbhen, 1987) inhibits the activity of glyceraldehyde-3-phosphate dehydrogenase in chondrocytes, resulting in disruption of glycolysis and eventually in cell death. The progressive loss of chondrocytes results in histological and morphological changes of the articular cartilage, closely resembling those seen in osteoarthritis patients.\nThe osteoarthritis was induced in 200 g male Sprague Dawley rats. […]\nTypically, during disease progression, there was an inflammation period of 0-7 days post-intra-articular injection followed by progressive degeneration of the cartilage and subchondral bone from days 14-55. […] Tactile allodynia was measured via von Frey assay, hind limb paw weight distribution was monitored using an incapacitence tester (Columbus Instruments, Columbus, OH, USA) and hind limb grip strength was measured using a grip strength meter (Columbus Instruments, Columbus, OH, USA). […] Hind paw weight distribution was determined by placing rats in a chamber so that each hind paw rests on a separate force plate of the incapacitence tester. The force exerted by each hind limb (measured in grams) is averaged over a 3 second period. Three measurements were taken for each rat, and the change in hind paw weight distribution calculated. […]"}, "[7]": {"system": "Sprague Dawley rats, acetic acid-induced writhing", "assay": "Acetic acid-induced writhing model of visceral pain", "format": "in vivo, rat", "conditions": "3, 10, 30 mg/kg PO, acetic acid 1.5% IP; FIGS. 11 and 12", "description": "Writhing is induced in male Sprague Dawley rats by administering glacial acetic acid (1.5%) intraperitoneally (IP). […] On test day, rats are placed in observation cages and administered compound according to the schedules in Tables D, F, H, and J. Treatment groups are as provided in Tables E, G, I, and K.\nStudies are performed to evaluate single dose assessment (Tables D and E), maintenance of efficacy after repeated administration (Tables F and G), antagonist interactions (Tables H and I), and dose response (Tables J and K).\nWrithing behavior is scored for 30 minutes in five-minute time bins.\nWrithing behavior was evaluated 20 minutes later and recorded for 30 minutes (in five-minute bins)."}, "[8]": {"biological_target": "T1, recombinant CB2 receptors (rat) (Rattus norvegicus, UniProt Q9QZN9)", "T1 sequence (Q9QZN9 1-360)": "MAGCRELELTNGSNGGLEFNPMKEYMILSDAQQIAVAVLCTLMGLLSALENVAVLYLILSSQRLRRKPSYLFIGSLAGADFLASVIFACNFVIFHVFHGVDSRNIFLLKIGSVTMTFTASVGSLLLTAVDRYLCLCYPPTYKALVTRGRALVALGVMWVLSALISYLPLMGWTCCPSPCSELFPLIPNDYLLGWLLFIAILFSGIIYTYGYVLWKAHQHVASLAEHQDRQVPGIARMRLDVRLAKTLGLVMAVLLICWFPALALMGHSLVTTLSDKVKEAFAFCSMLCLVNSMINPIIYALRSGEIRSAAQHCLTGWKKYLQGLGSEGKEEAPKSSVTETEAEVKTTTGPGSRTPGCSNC", "assay": "GPCR signaling assay, recombinant rat CB2", "format": "cell-based", "conditions": "GPCR signaling assays, recombinant receptor", "description": "(§1) The binding affinity, potency, and selectivity of Compound A for recombinant CB2 receptors were determined using radioligand binding assays and GPCR signaling assays."}, "[9]": {"system": "male Sprague-Dawley rats, STZ-induced PDPN", "assay": "Streptozotocin-induced painful diabetic peripheral neuropathy (PDPN) model", "format": "in vivo, rat", "conditions": "10 mg/kg orally in 0.5% methylcellulose; 1, 4 and 6 hours post-dosing; FIG. 9, FIG. 10", "description": "Male Sprague-Dawley rats were injected intraperitoneally with 50 mg/kg of streptozotocin (STZ) in sodium citrate buffer. 10% sucrose water was provided ad libitum for the first 48 hours post-STZ followed by regular drinking water. Rats were monitored once weekly for blood glucose levels and body weights. Development of tactile allodynia over time was analyzed using Von Frey filaments and a 50% withdrawal threshold was determined using Dixon's up-down procedure. […] Tactile allodynia was evaluated at 1, 4 and 6 hours post-dosing."}, "[10]": {"system": "rats with TNBS-induced colitis and healthy rats", "assay": "Visceral pain model of colitis: visceromotor response to colorectal distension after TNBS", "format": "in vivo, rat", "description": "Rats with active colitis display allodynia and hyperalgesia to colorectal distension following the administration of trinitrobenzene sulfonic acid (TNBS).\nAbdominal electromyographic (EMG) electrode implantation is followed by measurement of visceromotor response (VMR) at 0, 20, 40, 60, and 80 mmHg of colorectal distention on day 4. The effect of each treatment on colonic compliance is also determined.\nAbdominal EMG electrode implantation is followed by measurement of VMR at 0, 20, 40, 60, and 80 mmHg of colorectal distention on day 4. The effect of each treatment on colonic compliance is also determined."}, "[11]": {"biological_target": "T2, recombinant CB2 receptors (dog) (Canis lupus familiaris, UniProt E2RKA3)", "T2 construct": "other: GPCR signaling assays, recombinant receptor", "T2 sequence (E2RKA3 1-360)": "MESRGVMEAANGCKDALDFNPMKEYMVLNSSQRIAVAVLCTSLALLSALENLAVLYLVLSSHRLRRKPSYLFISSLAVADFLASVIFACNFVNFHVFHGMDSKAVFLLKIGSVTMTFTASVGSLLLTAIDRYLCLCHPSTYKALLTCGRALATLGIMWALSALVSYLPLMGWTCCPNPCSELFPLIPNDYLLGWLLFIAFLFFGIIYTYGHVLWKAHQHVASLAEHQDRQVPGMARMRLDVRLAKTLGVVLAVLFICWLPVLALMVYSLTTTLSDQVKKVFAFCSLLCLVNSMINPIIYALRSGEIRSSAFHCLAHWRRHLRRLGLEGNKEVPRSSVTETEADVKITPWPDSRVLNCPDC", "assay": "GPCR signaling assay, recombinant dog CB2", "format": "cell-based", "conditions": "GPCR signaling assays, recombinant receptor", "description": "as §1"}, "[12]": {"system": "recombinant dog CB1 receptors", "assay": "Interaction with recombinant dog CB1", "conditions": "test concentrations up to 10 μM"}, "[13]": {"biological_target": "recombinant rat CB1 receptors (Rattus norvegicus, UniProt P20272)", "sequence (P20272 whole entry)": "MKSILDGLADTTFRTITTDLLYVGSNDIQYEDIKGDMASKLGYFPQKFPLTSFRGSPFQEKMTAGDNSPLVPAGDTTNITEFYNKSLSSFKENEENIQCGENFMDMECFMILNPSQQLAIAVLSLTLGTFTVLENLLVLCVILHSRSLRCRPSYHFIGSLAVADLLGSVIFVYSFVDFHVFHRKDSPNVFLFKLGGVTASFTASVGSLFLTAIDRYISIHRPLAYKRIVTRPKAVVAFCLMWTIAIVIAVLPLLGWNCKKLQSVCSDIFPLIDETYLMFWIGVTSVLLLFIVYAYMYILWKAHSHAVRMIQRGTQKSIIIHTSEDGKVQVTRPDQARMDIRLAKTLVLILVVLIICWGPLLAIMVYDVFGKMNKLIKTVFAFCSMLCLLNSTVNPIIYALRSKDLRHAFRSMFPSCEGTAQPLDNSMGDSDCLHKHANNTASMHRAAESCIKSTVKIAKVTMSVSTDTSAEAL", "assay": "Interaction with recombinant rat CB1", "conditions": "test concentrations up to 10 μM"}, "human CB2 receptor [14]": {"biological_target": "T3, human CB2 receptor (Homo sapiens, UniProt P34972)", "T3 sequence (P34972 whole entry)": "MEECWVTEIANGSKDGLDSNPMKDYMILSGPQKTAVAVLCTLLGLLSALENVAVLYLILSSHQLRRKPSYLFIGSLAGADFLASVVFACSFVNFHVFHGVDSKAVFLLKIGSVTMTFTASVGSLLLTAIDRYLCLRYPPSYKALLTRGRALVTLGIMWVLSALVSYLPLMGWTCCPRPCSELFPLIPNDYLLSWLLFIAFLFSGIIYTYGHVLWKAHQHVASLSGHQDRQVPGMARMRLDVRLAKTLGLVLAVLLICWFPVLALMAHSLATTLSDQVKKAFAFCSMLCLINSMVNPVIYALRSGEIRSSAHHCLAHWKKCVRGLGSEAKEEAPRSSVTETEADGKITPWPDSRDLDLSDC", "assay": "GPCR signaling assay, recombinant human CB2", "format": "cell-based"}, "hCB1 [15]": {"biological_target": "T4, hCB1 (Homo sapiens, UniProt P21554)", "T4 sequence (P21554 whole entry)": "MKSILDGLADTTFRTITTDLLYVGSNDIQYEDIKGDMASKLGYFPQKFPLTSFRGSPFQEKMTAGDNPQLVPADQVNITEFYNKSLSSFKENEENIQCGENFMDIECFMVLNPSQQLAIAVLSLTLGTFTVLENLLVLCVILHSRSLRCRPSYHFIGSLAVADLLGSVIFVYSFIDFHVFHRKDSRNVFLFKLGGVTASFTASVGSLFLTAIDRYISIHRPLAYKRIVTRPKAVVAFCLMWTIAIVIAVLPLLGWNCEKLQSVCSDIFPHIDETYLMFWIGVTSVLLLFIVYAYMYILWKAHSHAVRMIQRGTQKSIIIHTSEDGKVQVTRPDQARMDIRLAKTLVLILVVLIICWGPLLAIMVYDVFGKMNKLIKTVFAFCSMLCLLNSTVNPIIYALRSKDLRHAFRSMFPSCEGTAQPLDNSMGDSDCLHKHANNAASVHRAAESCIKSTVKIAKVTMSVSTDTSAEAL", "assay": "Interaction with recombinant human CB1", "conditions": "test concentrations up to 10 μM"}, "human CB2 receptor [16]": {"biological_target": "T3, human CB2 receptor", "assay": "Radioligand binding assay, hCB2", "parameters": "93-0164 (CHO-K1 EA-Arrestin parental line); host or cells: CHO-K1 EA-Arrestin, clone #61", "conditions": "Table C", "method": "Preparation of Membranes: HTEK293 cells stably expressing human CB2 receptor were collected, washed in ice cold PBS, and centrifuged at 48,000×g for 20 min at 4° C. The cell pellet was then collected, resuspended in wash buffer (20 mM HEPES, pH 7.4 and 1 mM EDTA), homogenized on ice using a Brinkman Polytron, and centrifuged at 48,000×g for 20 min at 4° C. The resultant pellet was resuspended in ice cold 20 mM HEPES, pH 7.4, homogenized again on ice, recentrifuged for 20 min at 4° C., and membrane pellets were then stored at −80° C. until needed.\n[^3H]CP55,940 and [^3H]WIN55,212-2 Radioligand Binding Assays: Radioligand binding assays for human CB2 receptors were performed using two different agonist radioligands, [^3H]CP55,940 and [^3H]WIN55,212-2 and similar assay conditions. For both assays, nonspecific binding was determined in the presence of 10 mM unlabeled compound. […] Then, 25 μL of BetaScint scintillation cocktail was added to each well, and plates were read in a Packard TopCount scintillation counter."}, "hCB1 [17]": {"biological_target": "T4, hCB1", "assay": "Radioligand binding assay, hCB1", "conditions": "Table C"}, "CB1": {"biological_target": "CB1 (Mus musculus, UniProt P47746)", "sequence (P47746 whole entry)": "as the sequence (P20272 whole entry) above, with E95D counted along it", "conditions": "exogenous administration; cited from earlier work"}}}
{"smiles": "CN1CCCCC1Cn1cc(C(=O)c2cc([N+](=O)[O-])ccc2I)c2ccccc21", "note": "(stereo not drawn) [AM1241]", "values": [{"measurement": "Tactile and thermal hypersensitivity", "setting": "[1]", "result": "reverses tactile and thermal hypersensitivity"}, {"measurement": "Hyperalgesia in carrageenan, capsaicin, and formalin models", "setting": "[2]", "result": "suppresses hyperalgesia"}]}
{"smiles": "CCCCCCC(C)(C)c1cc(O)c2c(c1)OC(C)(C)[C@@H]1CC=C(CO)C[C@@H]21", "note": "[HU-210]", "values": [{"measurement": "Capsaicin-induced hyperalgesia and allodynia", "setting": "[3]", "result": "attenuates capsaicin-induced hyperalgesia and allodynia"}]}
{"smiles": "CC(C)(CO)NC(=O)c1nn(-c2ccc(F)cc2F)c2c1C[C@H]1C[C@@H]21", "note": "[Compound 493, (1aR,5aR)-2-(2,4-Difluoro-phenyl)-1a,2,5,5a-tetrahydro-1H-2,3-diaza-cyclopropa[a]pentalene-4-carboxylic acid (2-hydroxy-1,1-dimethyl-ethyl)-amide]", "values": [{"measurement": "Time of maximum efficacy post-dosing", "setting": "[4]", "result": 1, "unit": "h"}, {"measurement": "Paw withdrawal threshold (PWT) in comparison with vehicle and gabapentin", "setting": "[4]; von Frey 30, 60 and 180 minutes after dosing", "result": "increase in paw withdrawal threshold (PWT)"}, {"measurement": "Paw withdrawal threshold (PWT) in comparison with the vehicle", "setting": "[5]", "result": "increase in paw withdrawal threshold (PWT)"}, {"measurement": "Paw withdrawal threshold (PWT) in comparison with vehicle", "setting": "[6]", "result": "Increase in paw withdrawal threshold (PWT)"}]}
{"smiles": "CC(C)(C)[C@@H](CO)NC(=O)c1nn(-c2c[n+]([O-])ccn2)c2c1C[C@@H]1C[C@H]21", "note": "[Compound 699, (1aS,5aS)-2-(4-Oxy-pyrazin-2-yl)-1a,2,5,5a-tetrahydro-1H-2,3-diaza-cyclopropa[a]pentalene-4-carboxylic acid ((S)-1-hydroxymethyl-2,2-dimethyl-propyl)-amide]", "values": [{"measurement": "Efficacy on writhing behavior", "setting": "[7]", "result": "efficacious"}, {"measurement": "EC50", "setting": "[8]", "result": "6 to 8", "unit": "nM"}, {"measurement": "Analgesic efficacy (tactile allodynia, 50% withdrawal threshold)", "setting": "[9]", "result": "robust and sustained analgesic efficacy over 6 hours"}, {"measurement": "Response (VMR) in rats with healthy colons", "setting": "[10]; 30 mg/kg oral gavage twice daily for five days", "result": "without changing response"}, {"measurement": "Colonic hypersensitivity, dose dependence", "setting": "[10]; 10 and 30 mg/kg oral gavage twice daily, rats with TNBS-induced colitis", "result": "reducing colonic hypersensitivity in a dose-dependent manner"}, {"measurement": "Visceral pain response (VMR to colorectal distension), rats with TNBS-induced colitis", "setting": "[10]; 10 or 30 mg/kg oral gavage twice daily for five days, FIG. 13", "result": "reduces the visceral pain response"}, {"measurement": "EC50", "setting": "[11]", "result": "6 to 8", "unit": "nM"}, {"measurement": "Interaction with recombinant dog CB1 receptors", "setting": "[12]", "result": "did not interact"}, {"measurement": "Interaction with recombinant rat CB1 receptors", "setting": "[13]", "result": "did not interact"}, {"measurement": "Kind of activity at the CB2 receptor", "setting": "human CB2 receptor [14]", "result": "full agonist"}, {"measurement": "Interaction with recombinant human CB1 receptors", "setting": "hCB1 [15]", "result": "did not interact"}]}
{"smiles": "CONC(=O)[C@@H](NC(=O)c1nn(-c2c[n+]([O-])ccn2)c2c1C[C@H]1C[C@@H]21)C(C)(C)C", "note": "[Compound 755, (1aR,5aR)-2-(4-Oxy-pyrazin-2-yl)-1a,2,5,5a-tetrahydro-1H-2,3-diaza-cyclopropa[a]pentalene-4-carboxylic acid ((S)-1-methoxycarbamoyl-2,2-dimethyl-propyl)-amide]", "values": [{"measurement": "Ki", "setting": "human CB2 receptor [16]", "result": 3.8, "unit": "nM"}, {"measurement": "Ki", "setting": "hCB1 [17]", "result": 1200, "unit": "nM"}]}
{"smiles": "CCCCC/C=C\\C/C=C\\C/C=C\\C/C=C\\CCCC(=O)NCCCl", "note": "[arachidonyl-2-chloroethylamide]", "values": [{"measurement": "Effect on pain", "setting": "CB1", "result": "reduces pain"}]}
